The values below come from patent US9403829B2, “Pharmaceutical compositions of 7-(6-(2-hydroxypropan-2-yl)pyridin-3-yl)-1-((trans)-4-methoxycyclohexyl)-3,4-dihydropyrazino [2,3-b]pyrazin-2(1H)-one, a solid form thereof and methods of their use” (Signal Pharmaceuticals, LLC, priority 2011, dated 2016).

A short description of the data set: Phase 1 food effect study (Part 2), single 20-mg oral dose of Compound A tablet, fed vs fasted. Type of data set: in vivo, human. Particulars: for CL/F / AUC(0-inf) / Cmax / half-life / AUC(0-t) / Vd/F: geometric mean; for Tmax / AUC(0-inf) / Cmax / half-life / AUC(0-t) / Vd/F: male, human, plasma, 20 mg; for AUC(0-t): read-out: AUC0-24; for Vd/F: read-out: Vz/F. The protocol:
The primary objectives of this study are: to characterize the biotransformation and excretion of Compound A following a single 20 mg oral dose of Compound A capsule containing a microtracer of [^14C]-Compound A solution in healthy male subjects (Part 1) and to evaluate the effect of a high-fat meal on the pharmacokinetics (PK) of Compound A following a single oral 20-mg dose of Compound A tablet (Part 2).
Part 2 design: Part 2 will be a 2-period crossover study; in Period 1, subjects (n=12) will be randomized to receive either an oral 20 mg dose of Compound A tablet (Treatment B) under fed (n=6) or fasted (n=6) conditions. In Period 2, subjects will receive Treatment B under converse conditions based on treatment assignment in Period 1. After screening, subjects (n=12) eligible for participation in the study will return to the study center on Day −1 for baseline assessments. Subjects who continue to be qualified for participation in the study will be randomized and enrolled in the study on the morning of Day 1. Subjects (n=6) will be enrolled and randomized to receive Treatment B under fed or fasted conditions on the morning of Day 1 after fasting for at least 8 hours. Fed subjects will be served a standard high fat meal breakfast, or its equivalent, that must be consumed within 30 minutes from serving. Dosing must occur 30 minutes (+5 minutes) after serving a subject breakfast. All subjects (fed and fasted) will fast (not to consume any food) until 4 hours post dose. Water will be allowed during the fasting period. Subjects will be domiciled at the study center from Day −1 until the morning of Day 5 of each period. Subjects will be discharged from the study center on the morning of Day 5 upon satisfactory safety review and completion of study-related procedures. Safety and tolerability data will be monitored and collected following each dosing period. Periods 1 and 2 will be separated by a washout period of at least 7 days (no more than 10 days) from prior dose to the next dose. In certain instances, a longer washout may be acceptable if previously agreed to.
Serial blood samples (10 mL) will be collected at predose (0 hour) and at 0.5, 1, 2, 3, 6, 12, 24, 48, 72 and 96 hours post dose for the determination of plasma concentrations of Compound A and the O-desmethyl metabolite of Compound A. Safety will be monitored throughout the study; safety evaluations will include AE reporting, physical examinations, vital sign measurements, ECG, and clinical laboratory safety tests. Concomitant medications will be assessed and recorded throughout the study as well. In addition, during the subjects' stay-in-the clinic (i.e., confinement period), fasting plasma glucose levels will be monitored as part of the clinical laboratory safety tests. For Parts 1 and 2, all subjects will return to the clinic within 7 to days after the last dose for follow up safety assessments. In the event that a subject discontinues prematurely from the study, every reasonable effort should be made (and documented) to ensure that all procedures and evaluations scheduled for the follow-up visit are performed at the time of discontinuation or a follow-up visit should be scheduled within 7 to days from the discontinuation day.
Part 2 dosing: In Part 2, subjects will fast overnight for at least 8 hours prior to Compound A administration. On the morning of Day 1, each subject will receive a 20-mg tablet of Compound A orally. Subjects randomized to receive Compound A under fed conditions will be a served a standard high fat meal (breakfast).
The standard high fat meal or its equivalent must be consumed within minutes of serving. Dosing must occur 30 minutes (+5 minutes) after serving the meal. The tablet will be administered with approximately 240 mL of non-carbonated, room temperature water. After dosing, subjects will continue to fast until 4 hours after dosing.

The mark [1] stands for this setting: fed vs fasted, healthy adult males, 20 mg Compound A.
Setting [2] is: po, Fasted (n = 11), single 20-mg oral dose of Compound A tablet.
Where [3] appears, read: po, Fed (n = 11, high fat meal), single 20-mg oral dose of Compound A tablet.

Structures are written as SMILES. Read-outs that look alike come from different tables or passages of the source.

In turn, `CC(C)(O)c1ccc(-c2cnc3c(n2)N([C@H]2CC[C@H](O)CC2)C(=O)CN3)cn1` [O-Desmethyl metabolite, 1-((1r,4r)-4-hydroxycyclohexyl)-7-(6-(2-hydroxypropan-2-yl)pyridin-3-yl)-3,4-dihydropyrazino[2,3-b]pyrazin-2(1H)-one] had a CL/F (Fasted (n = 11), single 20-mg oral dose of Compound A tablet) of 2.0 L/h. Besides, the CL/F (Fed (n = 11, high fat meal), single 20-mg oral dose of Compound A tablet) is 2.0 L/h. Under setting [1], the “decrease in Cmax with a high fat meal” value is about 17% and the “increase in overall exposure (AUCinf) with a high fat meal” value is about 3%. For the same compound, the Tmax (oral, fed vs fasted, healthy adult males, 20 mg Compound A, read-out: delay in Tmax with a high fat meal) was 3 h. Moreover, the Tmax (po, Fasted (n = 11), single 20-mg oral dose of Compound A tablet, healthy adult males, median, read-out: Tmax) turned out to be 3 h. In addition, under setting [2], the AUC(0-inf) was found to be 9830 ng·h/mL, the Cmax is 425 ng/mL, the half-life was 14.8 h and the AUC(0-t) was 6400 ng·h/mL. Under setting [2], the Vd/F turned out to be 34.7 L. Under setting [3], the AUC(0-inf) was 10100 ng·h/mL, the Cmax amounted to 364 ng/mL, the half-life is 14.9 h and the AUC(0-t) was found to be 6270 ng·h/mL. Under setting [3], the Vd/F turned out to be 42.6 L. In addition, where the note is “po, Fed (n = 11, high fat meal), single 20-mg oral dose of Compound A tablet, median, read-out: Tmax”, the Tmax was 6 h.

A word on the CL/F: it is clearance divided by bioavailability, as obtained after extravascular dosing. By half-life is commonly meant how long it takes for the measured level to halve. A higher half-life goes with slow decline.
